Assay results published in patent US8815842B2 (priority 2006, dated 2014).
Converted amounts (≈) assume the structure as drawn. Like-named read-outs stand apart in the source and are kept apart here.

How the values were obtained:
[1] = system: foot-and-mouth disease virus serotype C; assay type: cell-based
Vero cells = assay: cells; assay type: cell-based; conditions: Chlorocebus sabaeus, 96 h, read-out: 50% cell growth inhibitory concentration (IC50)
[2] = system: foot-and-mouth disease virus; conditions: pig, in vivo
[3] = black-haired Japanese cattle, bovine, in vivo, po, 100 mg/kg
[4] = Corriedale, sheep, in vivo, po, 100 mg/kg
[5] = system: foot-and-mouth disease virus serotype A; assay type: cell-based
[6] = system: foot-and-mouth disease virus serotype Asia 1; assay type: cell-based
[7] = system: foot-and-mouth disease virus (O/JPN/2000 strain); assay: microbe, parasite or virus in culture; assay type: cell-based; conditions: in Sus scrofa, 72 h, read-out: plaque formation 50% inhibitory rate (IC50)
[8] = pig, in vivo, po, 100 mg/kg

NC(=O)c1nccnc1O [T-1105, 3-oxo-3,4-dihydro-2-pyrazinecarboxamide]
25% or more inhibitory concentration [1]: 1.25 µg/mL
IC50 (Vero cells): ≥ 250 µg/mL
change in appearance (lameness, dysstasia, blister formation in feet) [2]: no change in their appearance
plasma viral load, in words [2]: remained at the detection limit or bellow
viral load in the nasal swab, in words [2]: scarcely increased
clinical sign ([2]; 400 mg/kg/day): −
plasma viral load ([2]; 400 mg/kg/day): <0.14 TCID50/μL
toxic finding during the administration period ([2]; 400 mg/kg/day): no toxic finding
viral load in the nasal swab ([2]; 400 mg/kg/day): <0.07 TCID50/μL of swab solution
Plasma concentration 2 hrs after administration [3]: 7860 ng/mL
Plasma concentration 8 hrs after administration [3]: 173 ng/mL
Plasma concentration 2 hrs after administration [4]: 30900 ng/mL
Plasma concentration 8 hrs after administration [4]: 10200 ng/mL
25% or more inhibitory concentration [5]: 0.313 µg/mL
25% or more inhibitory concentration [6]: 0.625 µg/mL
IC50 [7]: 1.6 µg/mL (≈ 11.5 µM)
Plasma concentration 2 hrs after administration [8]: 75000 ng/mL
Plasma concentration 8 hrs after administration [8]: 36400 ng/mL
